# PMC6149822, “A New Series of Pyrrole-Based Chalcones: Synthesis and Evaluation of Antimicrobial Activity, Cytotoxicity, and Genotoxicity” (Molecules : A Journal of Synthetic Chemistry and Natural …, 2017)
# How the values were obtained:
# C. albicans (ATCC 90028) = experiment: Microdilution susceptibility assay (MIC); type: cell-based; conditions: Candida albicans, ATCC90028
# Method: (§1) Compounds 1–10 were screened for their antimicrobial activity against gram-negative bacteria, gram-positive bacteria, and yeasts, listed in Table 1. Bacteria were grown in Mueller-Hinton Broth and yeasts were grown in Sabouraud Dextrose Broth (SDB) during experiments. Overnight cultures were prepared routinely by subculturing of stock culture onto Mueller-Hinton Agar for bacteria and Sabouraud Dextrose Agar for yeasts.
# (§2) Microdilution susceptibility assay was used for the determination of antibacterial and anticandidal efficacy of compounds 1–10. Chloramphenicol and ketoconazole were used as positive controls for bacteria and yeasts, respectively. All experiments were designed according to the Clinical Laboratory Standards Institute (CLSI). All chemicals were dissolved in dimethyl sulfoxide (DMSO) to obtain stock solution (10 mg/mL). Two-fold serial dilutions (800, 400, 200...0.78 µg/mL) of the compounds were prepared from stock solutions with dH2O. 100 µL of each solution was transferred to 96-well microtiter plates and 100 µL of 10^6 CFU/mL of bacteria and 2 × 10^3 of CFU/mL yeast were added to related wells. As negative controls, wells including microorganisms without agents and wells including agents without microorganisms were used. The plates were kept at 35 °C for 18–20 h and the growth was determined with resazurin (20 mg/mL). Assays were carried out in triplicate.
# C. glabrata (ATCC 90030) = experiment: Microdilution susceptibility assay (MIC); type: cell-based, Candida glabrata; conditions: Nakaseomyces glabratus, ATCC90030
# Method: as §1, §2
# [1] = system: C. parapsilosis (ATCC 22019); experiment: Microdilution susceptibility assay (MIC); type: cell-based, Candida parapsilosis; conditions: Lodderomyces parapsilosis, ATCC22019
# Method: as §1, §2
# C. krusei (ATCC 6258) = experiment: Microdilution susceptibility assay (MIC); type: cell-based, Candida krusei; conditions: Pichia kudriavzevii, ATCC6258
# Method: as §1, §2
# C. krusei cells = experiment: Flow cytometry live/dead analysis (TO/PI); type: cell-based, Candida krusei; conditions: 25 µg/mL, 4 h
# Text: In order to investigate the effects of compounds 7 and 9 on the integrity of C. krusei cells, flow cytometry was used with BD cell viability kits. Live cells are impermeable to dyes such as PI since they have intact membranes. TO is a permeant dye and enters live and dead cells to varying degrees. The fluorescent signal from TO in viable cells allows their enumeration, even when debris in the cell preparation contaminates a scatter gate around the cells. Thus, the combination of these two dyes provides a rapid and reliable method for discriminating live and dead eukaryotic cells, including yeasts. All steps were performed according to manufacturers’ recommendations. Briefly, Candida cells were cultured at 35 °C in SDB until late log phase. The cells were centrifuged and washed with phosphate-buffered saline (PBS) at pH = 7.0. Suspensions containing 2 × 10^3 cells/mL were incubated with compounds 7 and 9, and ketoconazole as a reference drug, for 4 h at 35 °C, with shaking (200 r.p.m.). […] Suspensions of treated and untreated cells were incubated for 30 min in the presence of 2 µL of PI and 2 µL of TO, in the dark, at room temperature. The cell suspensions were analysed in a BD Accuri C6 flow cytometer (Becton-Dickinson, Mansfield, MA, USA). The cell scattergram (forward scatter: FS, side scatter: SS), the autofluorescence (without fluorocrome), and the intensity of fluorescence at FL1 (green fluorescence, 525 nm) and FL2 (red fluorescence, 620 nm) were recorded using a logarithmic scale.
# E. coli (ATCC 25922) = experiment: Microdilution susceptibility assay (MIC); type: cell-based; conditions: Escherichia coli, ATCC25922
# Method: as §1, §2
# E. faecalis (ATCC 29212) = experiment: Microdilution susceptibility assay (MIC); type: cell-based; conditions: Enterococcus faecalis, ATCC29212
# Method: as §1, §2
# E. faecalis (ATCC 51299) = experiment: Microdilution susceptibility assay (MIC); type: cell-based; conditions: Enterococcus faecalis, ATCC51299
# Method: as §1, §2
# [2] = system: K. pneumoniae (ATCC 700603); experiment: Microdilution susceptibility assay (MIC); type: cell-based; conditions: Klebsiella pneumoniae, ATCC700603
# Method: as §1, §2
# S. aureus (ATCC 25923) = experiment: Microdilution susceptibility assay (MIC); type: cell-based; conditions: Staphylococcus aureus, ATCC25923
# Method: as §1, §2
# [3] = system: A549 human lung adenocarcinoma cell line; experiment: MTT assay; type: cell-based; conditions: Homo sapiens, A549
# Method: (§3) The anticancer effects of compounds 1–10 on A549 human lung adenocarcinoma (ATCC® CCL-185™), HepG2 human hepatocellular carcinoma (ATCC® HB-8065™), and C6 rat glioma (ATCC® CCL107™) cell lines were assessed using 3-(4,5-Dimethylthiazol-2-yl)-2,5-diphenyltetrazolium bromide (MTT) assay, whereas the selectivity of compounds 1–10 was tested using NIH/3T3 mouse embryonic fibroblast cell line (ATCC® CRL-1658™, London, UK). All cell lines were incubated according to the supplier’s recommendations. The cells were seeded as 1 × 10^4 cells into each well of the 96-well plates. MTT assay was performed as previously described. The compounds were tested between the concentrations equal to 1 mM and 0.000316 mM (1.0, 0.316, 0.10, 0.0316, 0.01, 0.00316, 0.001, 0.000316 mM). Stock solutions of compounds were prepared in dimethyl sulfoxide (DMSO) and further dilutions were made with fresh culture medium. The final DMSO concentration was under 1% [34] and cisplatin was used as a positive control. Inhibition % was calculated for each concentration according to the formula below, and IC50 values were determined by plotting a dose–response curve of inhibition % versus compound concentrations tested. All experiments were performed in quadruplicate.Inhibition % = 100 − [(ODtest compound − ODblank/ODsolvent control − ODblank)] × 100(1)
# C6 rat glioma cell line = experiment: MTT assay; type: cell-based; conditions: Rattus norvegicus, C6
# Method: as §3
# [4] = system: HepG2 human hepatocellular carcinoma cell line; experiment: MTT assay; type: cell-based; conditions: Homo sapiens, HepG2
# Method: as §3
# [5] = system: NIH/3T3 mouse embryonic fibroblast cell line; experiment: MTT assay; type: cell-based; conditions: Mus musculus, NIH3T3, healthy cells for selectivity
# Method: as §3
# C. glabrata = experiment: ATP luminescence microbial cell viability assay; type: cell-based, Candida glabrata; conditions: 24 h treatment, result in words
# Method: A model from BioTek Instruments Inc. combined with a BacTiter-Glo^TM Microbial Cell Viability assay (Promega Corp., Madison, WI, USA) was used to provide a sensitive and rapid method for determining the number of viable microbial cells in culture based on quantitation of the ATP present. […] After incubation, cultures were added into the wells (final concentration of bacteria was 5 × 10^5 CFU/mL and 2.5 × 10^6 CFU/mL for yeasts). After adding the BacTiter reagent, incubation time for bacteria and yeasts was 5 min and 15 min, respectively.
# The assay generates a “glow-type” luminescent signal, produced by the luciferase reaction. Briefly, after chemicals and strains were incubated for 24 h, 100 µL of the culture was taken from each well and mixed with the same volume of the BacTiter-Glo™ reagent in a white, opaque-walled microtiter plate. Control wells containing medium without cells were prepared to obtain a value for background luminescence. Cells without compound were used as an ATP-positive control. The microplates were further incubated under agitation for 7 min. Bioluminescence was recorded in a multi-detection microplate reader (BioTek Synergy 2 Multi-Mode Microplate Reader, BioTek Instruments, Winooski, VT, USA). In Figure 3, results were given as percentage of untreated control, which is set at 100%. Experiments were performed in triplicate and each sample was measured in four replicates.
SMILES,MIC (C. albicans (ATCC 90028)),MIC (C. glabrata (ATCC 90030)),MIC [1],MIC (C. krusei (ATCC 6258)),MIC (E. coli (ATCC 25922)),MIC (E. faecalis (ATCC 29212)),MIC (E. faecalis (ATCC 51299)),MIC [2],MIC (S. aureus (ATCC 25923)),IC50 [3],IC50 (C6 rat glioma cell line),IC50 [4],melting point,Dead Cell % (C. krusei cells),Live Cell % (C. krusei cells),IC50 [5],antifungal activity in ATP bioluminescence assay (C. glabrata)
"CC(=O)N1CCN(c2ccc(OCC3COC(Cn4ccnc4)(c4ccc(Cl)cc4Cl)O3)cc2)CC1 (stereo not drawn) [Ketoconazole, reference compound]",50 µg/mL,100 µg/mL,50 µg/mL,50 µg/mL,–,–,–,–,–,–,–,–,–,18.4%,81.2%,–,–
"Cn1cccc1C(=O)C=Cc1ccc(-c2ccccc2Cl)o1 [Compound 5, 1-(1-Methyl-1H-pyrrol-2-yl)-3-(5-(2-chlorophenyl)furan-2-yl)prop-2-en-1-one]",200 µg/mL,200 µg/mL,100 µg/mL,200 µg/mL,400 µg/mL,200 µg/mL,200 µg/mL,200 µg/mL,400 µg/mL,311 µg/mL,> 311 µg/mL,31 µg/mL,95 to 96 °C,–,–,45 µg/mL,–
"Cn1cccc1C(=O)C=Cc1ccc(-c2cccc(Cl)c2)o1 [Compound 6, 1-(1-Methyl-1H-pyrrol-2-yl)-3-(5-(3-chlorophenyl)furan-2-yl)prop-2-en-1-one]",200 µg/mL,200 µg/mL,100 µg/mL,200 µg/mL,100 µg/mL,200 µg/mL,200 µg/mL,200 µg/mL,200 µg/mL,98 µg/mL,103 µg/mL,98 µg/mL,121 to 122 °C,–,–,38 µg/mL,–

# Further lines, with some results ahead:
MIC (C. albicans (ATCC 90028)),MIC (C. glabrata (ATCC 90030)),MIC [1],MIC (C. krusei (ATCC 6258)),MIC (E. coli (ATCC 25922)),MIC (E. faecalis (ATCC 29212)),MIC (E. faecalis (ATCC 51299)),MIC [2],MIC (S. aureus (ATCC 25923)),IC50 [3],IC50 (C6 rat glioma cell line),IC50 [4],melting point,SMILES,Dead Cell % (C. krusei cells),Live Cell % (C. krusei cells),IC50 [5],antifungal activity in ATP bioluminescence assay (C. glabrata)
200 µg/mL,100 µg/mL,50 µg/mL,200 µg/mL,100 µg/mL,200 µg/mL,200 µg/mL,100 µg/mL,100 µg/mL,> 357 µg/mL,> 357 µg/mL,100 µg/mL,133 to 134 °C,"Cn1cccc1C(=O)C=Cc1ccc(-c2ccc(Cl)cc2[N+](=O)[O-])o1 [Compound 4, 1-(1-Methyl-1H-pyrrol-2-yl)-3-(5-(2-nitro-4-chlorophenyl)furan-2-yl)prop-2-en-1-one]",–,–,36 µg/mL,antifungal activity close to ketoconazole
–,–,–,–,25 µg/mL,50 µg/mL,100 µg/mL,50 µg/mL,25 µg/mL,–,–,–,–,"O=C(N[C@H](CO)[C@H](O)c1ccc([N+](=O)[O-])cc1)C(Cl)Cl [Chloramphenicol, reference compound]",–,–,–,–
